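Exposure lasted 48 hours, with cells grown in 96-well plates and compounds tested at five concentrations. The concentration for 50% growth inhibition is given as GI50.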 Activity calls are given as the source filed them. No stated cut-off is given here; in the data, active = GI50 up to about 1.1 µM and inactive = higher.

What all share (assay): growth of human tumour cells (NCI), 48 h
The subject of assay [1] is CAKI-1.
The test system of assay [2] is EKVX.
Assay [3] has as its system MDA-MB-231.
Assay [4] has as its system SNB-75.
For assay [5], the system named is SW-620.
The subject of assay [6] is HOP-62.
The subject of assay [7] is DU-145.
For assay [8], the system named is UO-31.
The subject of assay [9] is NCI-H23.
For assay [10], the system named is UACC-257.
Assay [11] has as its system NCI/ADR-RES.
The test system of assay [12] is OVCAR-4.
The subject of assay [13] is MDA-MB-435.
Assay [14] concerns HCT-15.
Assay [15] deals with HCT-116.
Assay [16] relates to OVCAR-3.
Assay [17] deals with LOX IMVI.
The subject of assay [18] is HT-29.
Assay [19] relates to OVCAR-5.
In assay [20] the test system is RXF 393.

For the molecule `COc1ccc(C(CC(=O)c2ccccc2)C(=O)c2ccc3c(c2)OCO3)cc1` (stereo unspecified), the GI50 in assay [1], in assay [2], in [3], in [4], in assay [5] and in assay [6] was > 100 µM (inactive) each time. In addition, the GI50 in [7] is > 100 µM (inactive); in assay [8], > 100 µM (inactive); in assay [9] it was > 100 µM (inactive); in assay [10], > 100 µM (inactive); in assay [11] it was > 100 µM (inactive); in [12], > 10 µM (inactive). In addition, the GI50 is > 100 µM (inactive) in assay [13] and greater than 100 µM in [14].
With `Cc1n[nH]c(=O)n1N1C(=O)c2ccccc2C1=O`, the GI50 in assay [1] was > 100 µM (inactive); in assay [2], > 100 µM (inactive); in assay [15] it was > 100 µM (inactive); in assay [3], > 100 µM (inactive); in assay [4] it was 26.4 µM (inactive); in assay [5], > 100 µM (inactive). For the same molecule, the GI50 in [6], in assay [7], in [8], in assay [16], in assay [17] and in assay [9] was > 100 µM (inactive) throughout. The GI50 in assay [10] is > 100 µM (inactive); in assay [18], > 100 µM (inactive); in assay [11], > 100 µM (inactive); in assay [12], > 100 µM (inactive); in assay [13] it was > 100 µM (inactive); in assay [14], greater than 100 µM. Further, the GI50 in [19] is > 100 µM (inactive).
Turning to `O=C(O)CCC[C@]1(O)O[C@@]2(CCCC2=O)[C@]2(O)CCC[C@@]21O`, the GI50 in [1] was 26.5 µM (inactive); in assay [2], > 100 µM (inactive); in assay [15], > 100 µM (inactive); in [3] it was > 100 µM (inactive); in assay [4], > 100 µM (inactive); in assay [5], > 100 µM (inactive). For the same molecule, the GI50 in assay [6], in [7], in assay [8], in assay [16], in assay [17] and in [9] was > 100 µM (inactive) throughout. Further, the GI50 in [10] was > 100 µM (inactive); in [18], > 100 µM (inactive); in assay [11], > 100 µM (inactive); in assay [12], > 100 µM (inactive); in assay [20], > 100 µM (inactive); in assay [14], greater than 100 µM. For the same molecule, the GI50 in assay [19] was > 100 µM (inactive).
Take `COC(=O)c1cc2c(cc1CC1Cc3cc4c(cc3C1=O)CCC4)CCC2` (stereo unspecified): the GI50 in [1] was > 100 µM (inactive); in [2], 67.5 µM (inactive); in assay [15], 33.4 µM (inactive); in [3], 53.8 µM (inactive); in [4], 54.1 µM (inactive); in [5], 29.4 µM (inactive). Also, the GI50 is > 100 µM (inactive) in [6]; > 100 µM (inactive) in assay [7]; > 100 µM (inactive) in assay [8]; 57.4 µM (inactive) in [16]; 41.4 µM (inactive) in assay [17]; 41.6 µM (inactive) in assay [9]. The GI50 is 39.1 µM (inactive) in assay [10]; 31.7 µM (inactive) in [18]; 38.1 µM (inactive) in [11]; 50.4 µM (inactive) in assay [12]; 24.7 µM (inactive) in assay [13]; 36.3 µM in assay [14]. In addition, the GI50 in [19] is > 100 µM (inactive).
